The values below are quoted from earlier work in patent US20090117584A1, “Non-Human mammalian Arthritis Model Featuring Human Antibodies Against Citrul-Linated Proteins” (GENMAB A/S, priority 2005, published 2009).

In one data set the test system is human IgG. The conditions noted are these: SCID mice engrafted with human RA tissue, treated with T-614.
Another data set relates to anti-CCP antibodies. The conditions noted are these: RA patients; anti-TNFα therapy in combination with low-dose methotrexate.

Consider `CS(=O)(=O)Nc1cc2occ(NC=O)c(=O)c2cc1Oc1ccccc1` [T-614], for which, in the data set with human IgG, the “levels of human IgG in SCID-HuRag mice” value is reported as “decreases”.
With “infliximab: anti-TNFalpha therapy, named in the cited title”, the anti-CCP titers result in the data set on anti-CCP antibodies is on record as “decrease”.
